Source: PMC7303061, “Alternaria toxins as casein kinase 2 inhibitors and possible consequences for estrogenicity: a hybrid in silico/in vitro study” (Archives of Toxicology, 2020)
Where two headings read alike, the source gives them in different places.

Tests used:
casein kinase 2 (CK2α1) [1] = biological target: T1, casein kinase 2 (CK2α1) (Homo sapiens, UniProt P68400); assay: cell-free ADP-Glo kinase assay, single concentration ([…]) positive control; format: biochemical
T1 construct: gene CSNK2A1; recombinant CK2α1

casein kinase 2 (CK2α1) [2] = biological target: T1, casein kinase 2 (CK2α1); assay: cell-free ADP-Glo kinase assay with recombinant CK2α[…] and casein, […] ATP; format: biochemical

T1 sequence (P68400 whole entry): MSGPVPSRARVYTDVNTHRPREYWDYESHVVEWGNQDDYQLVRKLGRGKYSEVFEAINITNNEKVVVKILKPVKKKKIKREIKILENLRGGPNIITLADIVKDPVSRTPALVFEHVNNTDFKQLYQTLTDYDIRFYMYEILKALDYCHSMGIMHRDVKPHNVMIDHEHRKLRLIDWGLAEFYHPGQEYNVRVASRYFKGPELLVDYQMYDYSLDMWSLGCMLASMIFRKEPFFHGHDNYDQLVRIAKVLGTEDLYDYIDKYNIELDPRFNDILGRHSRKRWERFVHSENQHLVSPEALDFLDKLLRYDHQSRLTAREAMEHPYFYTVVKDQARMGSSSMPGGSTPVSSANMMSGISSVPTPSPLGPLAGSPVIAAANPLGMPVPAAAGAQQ

In the case of O=c1c(O)c(-c2ccc(O)c(O)c2)oc2cc(O)cc(O)c12 [QUE, quercetin], the inhibition at 10 µM (casein kinase 2 (CK2α1) [1]) is reported as 94%.

Work on Cc1cc(O)cc2oc(=O)c3c(O)cc(O)cc3c12 [AOH, alternariol] yielded an IC50 (casein kinase 2 (CK2α1) [2]) of 707 nM.

For O=C1CC[C@]2(O)c3c(ccc(O)c31)-c1ccc(O)c3c1C2[C@H]1O[C@H]1C3=O (stereo partly drawn) [ATX-II, altertoxin II], the IC50 (casein kinase 2 (CK2α1) [2]; read-out: IC50) was 5100 nM.
